Several values for one entry are separate records, joined by “and”; a condition that tells them apart may be missing. Identical values can stand only once.
Tested on: mouse Mfsd2a
Test: Cell-based free fatty acid transport/uptake in Mfsd2a expressing HEK293 cells (mass spectrometry, TLC; Table 1)
Conditions: mock HEK293 cells, 100 uM fatty acid/BSA overnight
Summary of the method: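 HEK293 cells expressing mouse Mfsd2a, or mock controls, were incubated overnight with 100 μM BSA-complexed fatty acids. Lipids were extracted in hexane:isopropanol (3:2) and phospholipid species quantified by HPLC-MS/MS against spiked internal standards. For TLC, cells received 100 μM [^14C]-oleate overnight, and phospholipids and neutral lipids were resolved.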

CCCCCCCCCCCCCCCC(=O)O [Palmitic acid]
% DHA in PC + lysoPC: 0.04025% and 0.03837% and 0.03939%
% DHA in PE + lysoPE: 10.87% and 12.13% and 11.44%
% DHA in PI and lysoPI: 0.01445% and 0.01615% and 0.01441%
% DHA in PS: 0.1091% and 0.1184% and 0.1391%
LPI16:0 in total phospholipid: 0.004053 mol percent and 0.002611 mol percent and 0.002621 mol percent
LPI18:0 in total phospholipid: 0.0326 mol percent and 0.02611 mol percent and 0.03227 mol percent
LPI20:4 in total phospholipid: 0.002114 mol percent and 0.002121 mol percent and 0.002948 mol percent
LPI22:6 in total phospholipid: 0.009339 mol percent and 0.008648 mol percent and 0.007698 mol percent
Lyso PE16:0p in total phospholipid: 2.649 mol percent and 2.594 mol percent and 2.175 mol percent
Lyso PE18:0p in total phospholipid: 0.4161 mol percent and 0.4127 mol percent and 0.4189 mol percent
Lyso PE18:1p in total phospholipid: 0.2081 mol percent and 0.1327 mol percent and 0.1216 mol percent
Lyso PE20:0p in total phospholipid: 0.1803 mol percent and 0.2801 mol percent and 0.1892 mol percent
LysoPC16:0e in total phospholipid: 0.003391 mol percent and 0.004221 mol percent and 0.003565 mol percent
LysoPC16:0 in total phospholipid: 0.02383 mol percent and 0.02127 mol percent and 0.02008 mol percent
LysoPC16:1 in total phospholipid: 0.006406 mol percent and 0.00591 mol percent and 0.006781 mol percent
LysoPC18:0e in total phospholipid: 0.002449 mol percent and 0.002111 mol percent and 0.001826 mol percent
LysoPC18:0 in total phospholipid: 0.0065 mol percent and 0.007261 mol percent and 0.008694 mol percent
LysoPC18:1 in total phospholipid: 0.01564 mol percent and 0.01503 mol percent and 0.01617 mol percent
LysoPC18:2 in total phospholipid: 0.00179 mol percent and 0.001266 mol percent and 0.001826 mol percent
LysoPC20:4 in total phospholipid: 0.000565 mol percent and 0.000507 mol percent and 0.000435 mol percent
LysoPC22:5 in total phospholipid: 0.000565 mol percent and 0.000507 mol percent and 0.000609 mol percent
LysoPE16:1 in total phospholipid: 0.1387 mol percent and 0.1179 mol percent and 0.1351 mol percent
LysoPE18:0 in total phospholipid: 0.1248 mol percent and 0.1327 mol percent and 0.06756 mol percent
LysoPE18:1 in total phospholipid: 0.06936 mol percent and 0.1032 mol percent and 0.1081 mol percent
PC32:0e in total phospholipid: 1.801 mol percent and 1.766 mol percent and 1.854 mol percent
PC32:0 in total phospholipid: 2.545 mol percent and 2.525 mol percent and 2.567 mol percent
PC32:1e in total phospholipid: 2.44 mol percent and 2.388 mol percent and 2.446 mol percent
PC32:1 in total phospholipid: 9.659 mol percent and 9.461 mol percent and 9.558 mol percent
PC32:2 in total phospholipid: 1.526 mol percent and 1.443 mol percent and 1.528 mol percent
PC34:1e in total phospholipid: 4.963 mol percent and 4.847 mol percent and 4.905 mol percent
PC34:1 in total phospholipid: 19.9344 mol percent and 19.96 mol percent and 20.13 mol percent
PC34:2e in total phospholipid: 1.578 mol percent and 1.538 mol percent and 1.559 mol percent
PC34:2 in total phospholipid: 6.328 mol percent and 6.182 mol percent and 6.318 mol percent
PC34:3e in total phospholipid: 0.2382 mol percent and 0.2269 mol percent and 0.2367 mol percent
PC34:3 in total phospholipid: 0.6391 mol percent and 0.6013 mol percent and 0.6247 mol percent
PC36:1e in total phospholipid: 1.472 mol percent and 1.429 mol percent and 1.48 mol percent
PC36:1 in total phospholipid: 2.714 mol percent and 2.676 mol percent and 2.731 mol percent
PC36:2e in total phospholipid: 1.667 mol percent and 1.629 mol percent and 1.643 mol percent
PC36:2 in total phospholipid: 5.976 mol percent and 5.824 mol percent and 5.922 mol percent
PC36:3e in total phospholipid: 0.8048 mol percent and 0.7841 mol percent and 0.7962 mol percent
PC36:3 in total phospholipid: 1.196 mol percent and 1.137 mol percent and 1.173 mol percent
PC36:4e in total phospholipid: 0.4288 mol percent and 0.4113 mol percent and 0.4345 mol percent
PC36:4 in total phospholipid: 0.338 mol percent and 0.3342 mol percent and 0.3346 mol percent
PC36:5e in total phospholipid: 0.345 mol percent and 0.3295 mol percent and 0.3467 mol percent
PC36:5 in total phospholipid: 0.06048 mol percent and 0.05513 mol percent and 0.06303 mol percent
PC36:6 in total phospholipid: 0.04691 mol percent and 0.05294 mol percent and 0.05486 mol percent
PC38:1e in total phospholipid: 0.3684 mol percent and 0.3499 mol percent and 0.3643 mol percent
PC38:3e in total phospholipid: 0.4177 mol percent and 0.3847 mol percent and 0.3977 mol percent
PC38:3 in total phospholipid: 0.5512 mol percent and 0.5341 mol percent and 0.5477 mol percent
PC38:4e in total phospholipid: 0.4224 mol percent and 0.3985 mol percent and 0.4045 mol percent
PC38:4 in total phospholipid: 0.4716 mol percent and 0.4393 mol percent and 0.4567 mol percent
PC38:5e in total phospholipid: 0.3578 mol percent and 0.3449 mol percent and 0.3552 mol percent
PC38:5 in total phospholipid: 0.2477 mol percent and 0.2424 mol percent and 0.2561 mol percent
PC38:6 in total phospholipid: 0.174 mol percent and 0.1785 mol percent and 0.1847 mol percent
PC38:7 in total phospholipid: 0.1181 mol percent and 0.1149 mol percent and 0.1218 mol percent
PC40:1e in total phospholipid: 0.1903 mol percent and 0.1874 mol percent and 0.1969 mol percent
PC40:2e in total phospholipid: 0.2001 mol percent and 0.2004 mol percent and 0.2061 mol percent
PC40:3e in total phospholipid: 0.1401 mol percent and 0.1387 mol percent and 0.1449 mol percent
PC40:4e in total phospholipid: 0.1234 mol percent and 0.1193 mol percent and 0.1297 mol percent
PC40:5e in total phospholipid: 0.1139 mol percent and 0.1153 mol percent and 0.1197 mol percent
PC40:5 in total phospholipid: 0.09044 mol percent and 0.0835 mol percent and 0.08903 mol percent
PC40:6 in total phospholipid: 0.1315 mol percent and 0.1248 mol percent and 0.1282 mol percent
PC40:7 in total phospholipid: 0.1778 mol percent and 0.1711 mol percent and 0.1768 mol percent
PE32:1 in total phospholipid: 0.3976 mol percent and 0.2948 mol percent and 0.3603 mol percent
PE32:2 in total phospholipid: 0.111 mol percent and 0.1474 mol percent and 0.08107 mol percent
PE34:0 in total phospholipid: 0.1665 mol percent and 0.1867 mol percent and 0.1531 mol percent
PE34:1 in total phospholipid: 1.137 mol percent and 1.327 mol percent and 1.144 mol percent
PE34:2 in total phospholipid: 0.7398 mol percent and 0.9433 mol percent and 0.7927 mol percent
PE34p:1 in total phospholipid: 0.971 mol percent and 1.042 mol percent and 0.8107 mol percent
PE34p:2 in total phospholipid: 0.2589 mol percent and 0.2653 mol percent and 0.2702 mol percent
PE36:1 in total phospholipid: 1.322 mol percent and 1.425 mol percent and 1.18 mol percent
PE36:2 in total phospholipid: 1.822 mol percent and 1.936 mol percent and 1.702 mol percent
PE36:3 in total phospholipid: 0.4809 mol percent and 0.3636 mol percent and 0.4143 mol percent
PE36:4 in total phospholipid: 0.2219 mol percent and 0.2555 mol percent and 0.1711 mol percent
PE36p:1 in total phospholipid: 0.4994 mol percent and 0.3931 mol percent and 0.3603 mol percent
PE36p:2 in total phospholipid: 0.4531 mol percent and 0.5896 mol percent and 0.6485 mol percent
PE36p:3 in total phospholipid: 0.7305 mol percent and 0.7272 mol percent and 0.9548 mol percent
PE36p:4 in total phospholipid: 0.9617 mol percent and 0.9433 mol percent and 0.9458 mol percent
PE38:1 in total phospholipid: 0.3791 mol percent and 0.3046 mol percent and 0.3063 mol percent
PE38:2 in total phospholipid: 0.2589 mol percent and 0.2555 mol percent and 0.3423 mol percent
PE38:3 in total phospholipid: 0.6381 mol percent and 0.7959 mol percent and 0.5495 mol percent
PE38:4 in total phospholipid: 0.8693 mol percent and 0.9237 mol percent and 0.8647 mol percent
PE38:5 in total phospholipid: 0.3791 mol percent and 0.5405 mol percent and 0.4684 mol percent
PE38:6 in total phospholipid: 0.1665 mol percent and 0.1376 mol percent and 0.1531 mol percent
PE38p:0 in total phospholipid: 0.05548 mol percent and 0.08844 mol percent and 0.09008 mol percent
PE38p:1 in total phospholipid: 0.2034 mol percent and 0.226 mol percent and 0.2432 mol percent
PE38p:2 in total phospholipid: 0.2312 mol percent and 0.2948 mol percent and 0.3423 mol percent
PE38p:3 in total phospholipid: 0.7768 mol percent and 0.8352 mol percent and 0.7656 mol percent
PE38p:4 in total phospholipid: 1.036 mol percent and 0.8549 mol percent and 0.9998 mol percent
PE38p:5 in total phospholipid: 0.6381 mol percent and 0.7272 mol percent and 0.7026 mol percent
PE38p:6 in total phospholipid: 0.971 mol percent and 1.238 mol percent and 1.108 mol percent
PE40:3 in total phospholipid: 0.1202 mol percent and 0.1179 mol percent and 0.1621 mol percent
PE40:5 in total phospholipid: 0.1572 mol percent and 0.1376 mol percent and 0.2432 mol percent
PE40:6 in total phospholipid: 0.3052 mol percent and 0.3832 mol percent and 0.2702 mol percent
PE40p:4 in total phospholipid: 0.2959 mol percent and 0.2162 mol percent and 0.2973 mol percent
PE40p:5 in total phospholipid: 0.2312 mol percent and 0.285 mol percent and 0.3153 mol percent
PE40p:6 in total phospholipid: 0.5271 mol percent and 0.7272 mol percent and 0.6485 mol percent
PE42p:4 in total phospholipid: 0.07398 mol percent and 0.05896 mol percent and 0.08107 mol percent
PE42p:6 in total phospholipid: 0.1572 mol percent and 0.167 mol percent and 0.1441 mol percent
PE42p:7 in total phospholipid: 0.1942 mol percent and 0.1277 mol percent and 0.1621 mol percent
PI 32:1 in total phospholipid: 0.01674 mol percent and 0.0186 mol percent and 0.01785 mol percent
PI 32:2 in total phospholipid: 0.001586 mol percent and 0.001469 mol percent and 0.001965 mol percent
PI 34:1 in total phospholipid: 0.1071 mol percent and 0.1227 mol percent and 0.1299 mol percent
PI 34:2 in total phospholipid: 0.06502 mol percent and 0.06038 mol percent and 0.07305 mol percent
PI 36:1 in total phospholipid: 0.1544 mol percent and 0.1643 mol percent and 0.1769 mol percent
PI 36:2 in total phospholipid: 0.3593 mol percent and 0.3719 mol percent and 0.3898 mol percent
PI 36:3 in total phospholipid: 0.1695 mol percent and 0.1663 mol percent and 0.1785 mol percent
PI 36:4 in total phospholipid: 0.04176 mol percent and 0.03965 mol percent and 0.0416 mol percent
PI 38:2 in total phospholipid: 0.3441 mol percent and 0.3474 mol percent and 0.3631 mol percent
PI 38:3 in total phospholipid: 0.9296 mol percent and 0.9911 mol percent and 1.026 mol percent
PI 38:4 in total phospholipid: 0.3635 mol percent and 0.3967 mol percent and 0.3998 mol percent
PI 38:5 in total phospholipid: 0.05392 mol percent and 0.0483 mol percent and 0.04815 mol percent
PI 38:6 in total phospholipid: 0.0074 mol percent and 0.009628 mol percent and 0.007698 mol percent
PI 40:3 in total phospholipid: 0.02555 mol percent and 0.02627 mol percent and 0.02801 mol percent
PI 40:4 in total phospholipid: 0.01515 mol percent and 0.01599 mol percent and 0.01196 mol percent
PI 40:5 in total phospholipid: 0.004934 mol percent and 0.004895 mol percent and 0.009172 mol percent
PI 40:6 in total phospholipid: 0.007048 mol percent and 0.006527 mol percent and 0.006715 mol percent
PS(sum) in total phospholipid: 3.034 mol percent and 2.842 mol percent and 3.239 mol percent
PS:34:1 in total phospholipid: 0.4968 mol percent and 0.4486 mol percent and 0.5434 mol percent
PS:34:2 in total phospholipid: 0.04738 mol percent and 0.04492 mol percent and 0.04867 mol percent
PS:36:1 in total phospholipid: 1.269 mol percent and 1.209 mol percent and 1.375 mol percent
PS:36:2 in total phospholipid: 0.4595 mol percent and 0.4148 mol percent and 0.4611 mol percent
PS:36:3 in total phospholipid: 0.02585 mol percent and 0.02217 mol percent and 0.0262 mol percent
PS:36:4 in total phospholipid: 0.00359 mol percent and 0.006418 mol percent and 0.006239 mol percent
PS:38:2 in total phospholipid: 0.2312 mol percent and 0.2147 mol percent and 0.2602 mol percent
PS:38:3 in total phospholipid: 0.1522 mol percent and 0.1447 mol percent and 0.1566 mol percent
PS:38:4 in total phospholipid: 0.07467 mol percent and 0.08168 mol percent and 0.07674 mol percent
PS:40:4 in total phospholipid: 0.08328 mol percent and 0.06359 mol percent and 0.073 mol percent
PS:40:5 in total phospholipid: 0.06605 mol percent and 0.06534 mol percent and 0.05865 mol percent
PS:40:6 in total phospholipid: 0.09836 mol percent and 0.1038 mol percent and 0.1248 mol percent
PS:40:7 in total phospholipid: 0.01077 mol percent and 0.01459 mol percent and 0.01435 mol percent
Total PC + lysoPC in total phospholipid: 71.06 mol percent and 69.79 mol percent and 71.05 mol percent
Total PE + lysoPE in total phospholipid: 23.19 mol percent and 24.54 mol percent and 22.75 mol percent
Total PI + lysoPI in total phospholipid: 2.715 mol percent and 2.832 mol percent and 2.956 mol percent

From patent publication US10175256B2, “Compositions and methods utilizing lysophosphatidylcholine scaffolds” (National University Of Singapore, priority 2013, dated 2019)
